According to patent US8372808B2, “Suppression of glial fibrillary acidic protein” (Wisconsin Alumni Research Foundation, priority 2008, dated 2013):
Where a name gives a salt, the structure may show the parent alone. Read-outs that look alike come from different tables or passages of the source.

Legend:
[1] = tested on: mGFAP protein; assay: GFAP protein levels by ELISA in 172.9 cells treated with betulinic acid derivatives; format: cell-based, mouse; details: 7 days of treatment, 0-20 μM
Protocol: FIG. 9A-D are graphs showing the effects of betulinic acid and betulinic acid derivatives on mGFAP protein levels in 172.9 cells after 7 days of treatment. In the graphs, ester and amide forms of various compounds are paired for comparison.
172.9 cells were used to test the effects of betulinic acid and betulinic acid derivatives on GFAP promoter activity and GFAP protein levels. Experiments were performed as previously described. Each of eight compounds (D-altroside (ester); D-altroside (amide); D-xyloside (ester); D-xyloside (amide); aglycon (ester); aglycon (amide); betulinic acid; 3-amino betulinic acid) was tested at a concentration of 0 μM, 0.1 μM, 0.5 μM, 1 μM, 5 μM, 10 μM, 15 μM, and 20 μM. […] Toxicity of the compounds was also evaluated.

[2] = tested on: 2.2 kb human GFAP promoter; assay: hGFAP promoter luciferase activity assay in 172.9 cells (primary astrocytes from dual luciferase transgenic mice); format: cell-based; details: for effect on GFAP promoter activity (luciferase expression driven by the hGFAP promoter): 172.9 cells, 3 days of treatment, 0-20 μM; for % GFAP reductions, luciferace expression from hGFAP promoter: tertiary screen, 48 hr exposure, at the MTDcc
Protocol: Cell-based assays were performed as four different screens using enriched cortical primary astrocyte cultures developed from transgenic mice expressing both firefly and Renilla luciferase reporter genes were generated. Briefly, the'firefly luciferase was placed under the control of a 2.2 kb human GFAP promoter to monitor GFAP transcription, and the Renilla luciferase was placed under the control of a 0.5 kb human GAPDH (glyceraldehyde 3-phosphate dehydrogenase) promoter to monitor transcription of a housekeeping gene for signal normalization. See section B, below for more detail regarding the development of transgenic mouse strains. Cells used in the following examples (e.g., the cortical primary astrocyte cells termed “172.9 cells,” described below) were developed from the transgenic mice described in section B.
Briefly, the cortices from individual pups were freed of meninges and placed into DMEM (Gibco) without serum, mechanically disassociated into single cells, suspended in medium containing DMEM supplemented with 10% fetal bovine serum (FBS; Hyclone), 100 U/ml penicillin, 100 μg/ml streptomycin (Gibco), seeded into T25 flasks (one brain per flask), and maintained in a humidified 5% CO2 atmosphere at 37° C. […] Medium was changed every 3 days. At 14-16 days in vitro (DIV), the flasks were shaken overnight at 200 rpm to remove oligodendrocytes and microglia. […] The cells were then suspended in DMEM with 10% FBS and plated (“passage 2”) on either 35 mm dishes, […], or 96-well plates (Corning) as needed. Cells were grown for varying days in vitro (DIV) at passage 2 and then used for various experiments. Tissue culture dishes and plates were pre-coated with 100 μg/ml poly-L-lysine for 1 h in a humidified 5% CO2 atmosphere at 37° C., and then allowed to air dry. […] Cell density was measured with the Vi-CELL cell counter (Beckman Coulter) or hemocytometer by the trypan-blue exclusion method. For simplicity, cells are referred to as “172.9 cells.”
Briefly, 172.9 cells were plated on poly-L coated white 96-well plates at a density of 5000 cells per well, in 100 μl DMEM with 10% FBS. At twenty-four hours, cells were exposed to the different compounds at a final concentration of 10 μM (diluted from a 50 mM stock) prepared in new medium (DMEM with 10% FBS). […] After exposure to compounds, luciferase activity in the primary and secondary screenings was determined by adding 30 μl of Bright-Glo™ reagent (Promega) to the 100 μl of media and cells of each well in the white 96-well plates with the Biomek® FX liquid handler (Beckman Coulter). After incubation for 1 minute at room temperature, signals were measured with the Safire 2 plate reader using Magellan™ software (Tecan). Other specific methods and equipment are known in the art and can be used to measure luciferase expression levels. This assay method is termed the “hGFAP promoter luciferase activity assay.” A reduction in luciferase expression as determined by this assay is termed “hGFAP promoter luciferase reduction.” For some assays that were aimed at confirming results of the initial screens, the same amount of Bright-Glo™ reagent was applied to each well in 96-well plates and signals were detected with the GloRunner™ Microplate Luminometer (Turner Biosystems) using the Dual-Glo® luciferase assay according to the manufacturer's recommendations (E1910, Promega).
In the secondary screen, cells were plated in a 96-well plate as described above for the primary screen.
Some compounds were unavailable outside of the library collections, and could not be further tested.
Each compound and concentration was analyzed in quadruplicate wells.
Compounds were tested at eight different concentrations ranging from 0-20 μM. In addition, GFAP protein levels were measured using a sandwich ELISA, which has greater sensitivity and is more accurate than the cell-based ELISA used in the primary screens.

[3] = tested on: mGFAP protein; assay: cell-based GFAP protein level assay (cell-based ELISA) in 172.9 cells; parameters: species or system mouse; details: for % GFAP reductions, mGFAP protein via ELISA: tertiary screen, 48 hr exposure, at the MTDcc
[4] = tested on: 172.9 cells; assay: cell viability (CellTiter-Glo) / MTDcc in 172.9 cells
Protocol: Criterion for acceptable viability was >70% survival.
Cell viability was determined as follows. After exposure to each compound (duplicate wells per compound), 50 μl of CellTitier-Glo Luminescent Cell Viability Assay reagent (G7571, Promega) was added to the 100 μl of media present in each well, and the luminescent signal (reflecting intracellular ATP level) was detected with either a Victor 3-V plate reader (Perkin Elmer) or GloRunner Microplate Luminometer (Turner Biosystems). Cell viability was expressed as a percent of non-treated control cells.
A dose-response curve was created for each compound (0.1, 0.5, 1, 5, 10, 15, 20 μM) using 48 hr exposures. The MTDcc (“maximum tolerated dose—cell culture”) indicates the highest concentration that retained at least 70% cell viability. Each compound and concentration was analyzed in quadruplicate wells. EGCDG: epigallocatechin 3,5-digallate; NPPB: 5-nitro-2-phenylproplyaminobenzoic acid. As used herein, MTDcc refers to the MTD as determined by this assay under the above conditions.

[5] = tertiary screen, 48 hr exposure, 0.1-20 μM, highest concentration that retained at least 70% cell viability
[6] = secondary screen, 10 μM, 48 hours

Row | Compound | % GFAP reductions, mGFAP protein via ELISA [3] [%] | MTDcc ([4]; mouse, 48 h) [µM] | % GFAP reductions, luciferace expression from hGFAP promoter [2] [%] | MTDcc [4, 5] [µM] | further results
1 | C=C(C)[C@@H]1CC[C@]2(C(=O)O)CC[C@]3(C)[C@H](CCC4[C@@]5(C)CC[C@H](OC(=O)CN(OC)[C@@H]6OC[C@@H](O)C(O)C6O)C(C)(C)C5CC[C@]43C)C12 (stereo partly drawn) [D-xyloside (ester), (3S)—O—(N-Methoxy-N-β-D-xylosylglycyl)betulinic acid] | – | – | – | – | effect on GFAP protein levels [1]: reduced GFAP protein levels more than the amide form; effect on GFAP promoter activity (luciferase expression driven by the hGFAP promoter) [2]: more dramatic decrease in GFAP promoter activity than the amide form
2 | C=C(C)[C@@H]1CC[C@]2(C(=O)O)CC[C@]3(C)[C@H](CCC4[C@@]5(C)CC[C@H](OC(=O)CN(OC)[C@@H]6OC(CO)[C@@H](O)C(O)C6O)C(C)(C)C5CC[C@]43C)C12 (stereo partly drawn) [D-altroside (ester), (3S)—O—(N-Methoxy-N-β-D-altrosylglycyl)betulinic acid] | – | – | – | – | effect on GFAP protein levels [1]: reduced GFAP protein levels more than the amide form; effect on GFAP promoter activity (luciferase expression driven by the hGFAP promoter) [2]: more dramatic decrease in GFAP promoter activity than the amide form
3 | C=C(C)[C@@H]1CC[C@]2(C(=O)O)CC[C@]3(C)[C@H](CCC4[C@@]5(C)CC[C@H](OC(=O)CNOC)C(C)(C)C5CC[C@]43C)C12 (stereo partly drawn) [aglycon (ester), (3S)—O—(N-Methoxyglycyl)betulinic acid] | – | – | – | – | effect on GFAP protein levels [1]: minimal effect; effect on GFAP promoter activity (luciferase expression driven by the hGFAP promoter) [2]: decreased luciferase expression
4 | CCCCC(CC)CN1CN(CC(CC)CCCC)CC(C)(N)C1 (stereo not drawn) [hexetidine] | 6.4 | >20 | 26 | – | –
5 | pyrogallin | 3.3 | – | 22 | >20 | –
6 | CC(C)(CO)[C@@H](O)C(=O)NCCC(=O)O [pantothenic acid] | −3.5 | >20 | 6 | – | –
7 | CCOC(=O)NC1=C(N2CC2)C(=O)C(NC(=O)OCC)=C(N2CC2)C1=O [diaziquone] | 9.5 | >20 | 86 | – | suppression in the protein assay [3, 6]: significant suppression; suppression in the promoter assay [2, 6]: significant suppression
8 | O=C1CCCN1CC#CCN1CCCC1 [oxotremorine] | 2.7 | – | 16 | >20 | –
9 | C=C(C)[C@@H]1CC[C@]2(C(=O)O)CC[C@]3(C)[C@H](CC[C@@H]4[C@@]5(C)CC[C@H](O)C(C)(C)[C@@H]5CC[C@]43C)[C@@H]12 [betulinic acid] | 6.3 | >20 | 13 | – | –
10 | NC[C@H]1O[C@H](O[C@H]2[C@H](O)[C@@H](O)[C@H](N)C[C@@H]2N)[C@H](N)[C@@H](O)[C@@H]1O [neamine] | −0.8 | – | 5 | >20 | –
11 | Cc1cc(O)c2c(c1)C(=O)c1cccc(O)c1C2=O [chrysophanol] | 18.6 | – | 66 | 12.5 | –
12 | O=C(O)c1cc([N+](=O)[O-])ccc1NCCCc1ccccc1 [5-nitro-2-phenylproplyaminobenzoic acid] | 0.4 | – | 16 | >20 | –
13 | CC(=O)OCC(=O)[C@@]12OC(C)(C)O[C@@H]1C[C@H]1[C@@H]3C[C@H](F)C4=CC(=O)C=C[C@]4(C)[C@@]3(F)[C@@H](O)C[C@@]12C [fluccinonide] | −2.2 | – | 28 | >20 | –
14 | COC(=O)[C@H](O)[C@H]1C(C)(C)[C@H](OC(C)=O)[C@@H]2CC3=C4CC(=O)O[C@@H](c5ccoc5)[C@]4(C)CC[C@@H]3[C@@]1(C)C2=O [swietenolide-3-acetate] | 0.7 | – | 8 | – | MTDcc [4]: >20 µM
15 | CSc1ccc2c(c1)N(CCC1CCCCN1C)c1ccccc1S2 (stereo not drawn) [thioridazine] | 17.7 | 5 | 37 | – | –
16 | CC/C(=C(\c1ccccc1)c1ccc(OCCN(C)C)cc1)c1ccccc1 [tamoxifen citrate] | 21.6 | 7.5 | 52 | – | –
17 | CCC(=O)O[C@]1(C(=O)CCl)[C@@H](C)C[C@H]2[C@@H]3CCC4=CC(=O)C=C[C@]4(C)[C@@]3(F)[C@@H](O)C[C@@]21C [clobetasol propionate] | −7.6 | >20 | 25 | – | –
18 | CCCCCCCCCCCC1=C(O)C(=O)C=C(O)C1=O [embelin] | 10.8 | 7.5 | 37 | – | –
19 | CN1CCC(=C2c3ccccc3CC(=O)c3sccc32)CC1 [ketotifen] | 8.6 | >20 | 25 | – | –
20 | C=C(C)[C@@H]1CC[C@]2(C(=O)O)CC[C@]3(C)[C@H](CCC4[C@@]5(C)CC[C@H](NC(=O)CNOC)C(C)(C)C5CC[C@]43C)C12 (stereo partly drawn) [aglycon (amide), (3S)—N—(N′-Methoxyglycyl)aminobetulinic acid] | – | – | – | – | effect on GFAP protein levels [1]: reduced GFAP protein levels more than the ester form
21 | CN(CC(=O)O)C(=N)NP(=O)(O)O [phosphocreatine] | 3.8 | – | 13 | >20 | –
22 | C[C@]12CC[C@@H]3c4ccc(OC(=O)c5ccccc5)cc4CC[C@H]3[C@@H]1CC[C@@H]2O [estradiol benzoate] | −2.8 | >20 | 26 | – | –
23 | NC[C@H]1O[C@H](O[C@H]2[C@H](O)[C@@H](O[C@H]3O[C@H](CO)[C@@H](O)[C@H](N)[C@H]3O)[C@H](N)C[C@@H]2N)[C@H](O)[C@@H](O)[C@@H]1O [kanamycin] | 11.3 | >20 | 22 | – | –
